From ChEMBL document CHEMBL2074131, “Inhibition of P-glycoprotein function by XR9576 in a solid tumour model can restore anticancer drug efficacy” (Eur J Cancer, 2004)

Target: ATP-dependent translocase ABCB1 (Homo sapiens, UniProt P08183)
Assay: TP_TRANSPORTER: drug resistance (vinblastine) in NCI/ADRRes cells
Type: functional, cell-based

Sequence of ATP-dependent translocase ABCB1 (P08183 whole entry): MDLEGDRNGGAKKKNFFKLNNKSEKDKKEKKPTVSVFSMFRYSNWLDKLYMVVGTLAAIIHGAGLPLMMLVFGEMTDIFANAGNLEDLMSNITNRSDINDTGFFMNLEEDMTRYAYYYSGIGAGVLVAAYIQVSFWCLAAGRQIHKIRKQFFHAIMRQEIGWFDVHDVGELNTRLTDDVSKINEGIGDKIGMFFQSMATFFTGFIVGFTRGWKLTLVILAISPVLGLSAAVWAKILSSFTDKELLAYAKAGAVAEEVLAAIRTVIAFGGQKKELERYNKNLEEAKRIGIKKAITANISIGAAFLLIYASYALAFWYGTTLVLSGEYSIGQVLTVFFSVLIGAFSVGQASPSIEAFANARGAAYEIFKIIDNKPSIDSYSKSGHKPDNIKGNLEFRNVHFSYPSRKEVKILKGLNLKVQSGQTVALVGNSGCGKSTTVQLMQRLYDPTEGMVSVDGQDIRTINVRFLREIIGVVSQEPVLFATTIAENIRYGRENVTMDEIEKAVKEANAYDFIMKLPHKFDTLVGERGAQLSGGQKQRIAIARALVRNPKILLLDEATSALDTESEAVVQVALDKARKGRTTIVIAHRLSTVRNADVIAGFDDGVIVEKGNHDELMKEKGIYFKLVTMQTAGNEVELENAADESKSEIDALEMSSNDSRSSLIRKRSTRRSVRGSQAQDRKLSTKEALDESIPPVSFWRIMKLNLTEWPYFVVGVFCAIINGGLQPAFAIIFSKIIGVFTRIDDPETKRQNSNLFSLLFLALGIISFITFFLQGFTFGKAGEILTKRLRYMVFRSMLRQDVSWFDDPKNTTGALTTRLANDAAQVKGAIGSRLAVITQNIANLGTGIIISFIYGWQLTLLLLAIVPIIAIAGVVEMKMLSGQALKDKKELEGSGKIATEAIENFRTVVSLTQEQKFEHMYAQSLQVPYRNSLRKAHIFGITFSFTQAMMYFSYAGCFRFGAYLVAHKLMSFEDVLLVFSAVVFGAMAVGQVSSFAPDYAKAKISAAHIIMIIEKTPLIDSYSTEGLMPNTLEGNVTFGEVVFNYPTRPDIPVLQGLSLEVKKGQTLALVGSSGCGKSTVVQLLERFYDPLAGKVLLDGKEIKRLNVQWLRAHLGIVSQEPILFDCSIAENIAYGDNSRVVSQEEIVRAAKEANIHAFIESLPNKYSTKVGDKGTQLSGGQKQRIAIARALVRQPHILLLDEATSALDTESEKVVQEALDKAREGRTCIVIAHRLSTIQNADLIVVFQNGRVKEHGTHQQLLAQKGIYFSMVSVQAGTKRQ

Activity: inhibitor [+]
SMILES: COc1cc2c(cc1OC)CN(CCc1ccc(NC(=O)c3cc(OC)c(OC)cc3NC(=O)c3cnc4ccccc4c3)cc1)CC2 [TARIQUIDAR]
